These results are taken from patent US8754212B2, “Process for the preparation of stable, amorphous calcium salt of (6S)-N(5)-methyl-5,6,7,8-tetrahydrofolic acid” (Cerbios-Pharma S.A., priority 2007, dated 2014).

Where two headings read alike, the source gives them in different places.

For series [1] the following is noted: stored at 25° C. under vacuum [2 mbar].
The conditions of series [2]: stored at 4° C. From the text:
For the determination of the purity and of the ratio of the diastereoisomers a sample of the compound of formula IV was washed with 94% (v/v) aqueous ethanol and was then dried under reduced pressure.

As for `CN1c2c(nc(N)[nH]c2=O)NC[C@@H]1CNc1ccc(C(=O)NC(CCC(=O)[O-])C(=O)[O-])cc1.[Ca+2]` (stereo partly drawn) [formula V, calcium salt of (6S)—N(5)-methyl-5,6,7,8-tetrahydrofolic acid], the “HPLC assay (%)” value in series [1] (time 0 months) was found to be 99.0%; in series [1] (time 1 month) it was 98.8%; in series [1] (time 2 months), 99.8%; in series [1] (time 3 months), 100.2%; in series [1] (time 6 months) it was 99.9%; in series [1] (time 9 months), 100.7%. In addition, the “HPLC purity (%)” value in series [1] (time 0 months) came out at 98.7%; in series [1] (time 1 month) it was 98.7%; in series [1] (time 2 months), 98.9%; in series [1] (time 3 months), 98.8%; in series [1] (time 6 months) it was 98.5%; in series [1] (time 9 months), 98.9%.

On to `CN1c2c(nc(N)[nH]c2=O)NC[C@@H]1CNc1ccc(C(=O)N[C@@H](CCC(=O)O)C(=O)O)cc1` [formula IV, (6S)—N(5)-methyl-5,6,7,8-tetrahydrofolic acid], for which the “HPLC purity (%)” value in series [2] (time 0 months) was 96.45%; in series [2] (time 6 months), 96.66%.
